What all share (type): cell-based
Holding throughout (conditions): compounds at 50 nM and 500 nM, 24 hours

In one experiment the target is T1, WEE1 (Homo sapiens, UniProt P30291+Q96SW2).
T1 construct: effects of the compounds of the present disclosure on the expression of target proteins in cells; endogenous in cells; host or cells: human PBMCs (hPBMCs)
Nature of the experiment: Western-blot assay, substrate protein degradation in hPBMCs: WEE1.

In the next experiment the target is T2, GSPT1 (Homo sapiens, UniProt P15170+Q96SW2).
T2 construct: effects of the compounds of the present disclosure on the expression of target proteins in cells; endogenous in cells; host or cells: human PBMCs (hPBMCs)
Nature of the experiment: Western-blot assay, substrate protein degradation in hPBMCs: GSPT1.

The target in a further experiment is T3, IKZF2 (Homo sapiens, UniProt Q96SW2+Q9UKS7).
T3 construct: effects of the compounds of the present disclosure on the expression of target proteins in cells; endogenous in cells; host or cells: human PBMCs (hPBMCs)
T3 sequence (Q9UKS7 whole entry): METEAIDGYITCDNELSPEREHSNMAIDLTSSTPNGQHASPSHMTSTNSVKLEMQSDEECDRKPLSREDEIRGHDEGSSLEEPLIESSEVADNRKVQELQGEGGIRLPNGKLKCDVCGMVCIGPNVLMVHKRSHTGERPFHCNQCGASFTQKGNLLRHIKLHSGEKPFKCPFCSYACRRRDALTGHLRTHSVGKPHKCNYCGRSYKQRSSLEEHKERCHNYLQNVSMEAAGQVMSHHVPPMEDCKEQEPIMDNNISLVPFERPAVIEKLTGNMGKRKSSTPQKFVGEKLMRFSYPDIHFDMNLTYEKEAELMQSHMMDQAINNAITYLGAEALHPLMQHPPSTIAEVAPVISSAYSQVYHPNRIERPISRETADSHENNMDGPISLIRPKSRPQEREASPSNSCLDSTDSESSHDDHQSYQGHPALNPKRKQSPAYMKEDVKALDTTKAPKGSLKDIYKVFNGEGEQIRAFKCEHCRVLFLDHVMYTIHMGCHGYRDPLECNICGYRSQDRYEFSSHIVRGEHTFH
T3 sequence (Q96SW2 whole entry): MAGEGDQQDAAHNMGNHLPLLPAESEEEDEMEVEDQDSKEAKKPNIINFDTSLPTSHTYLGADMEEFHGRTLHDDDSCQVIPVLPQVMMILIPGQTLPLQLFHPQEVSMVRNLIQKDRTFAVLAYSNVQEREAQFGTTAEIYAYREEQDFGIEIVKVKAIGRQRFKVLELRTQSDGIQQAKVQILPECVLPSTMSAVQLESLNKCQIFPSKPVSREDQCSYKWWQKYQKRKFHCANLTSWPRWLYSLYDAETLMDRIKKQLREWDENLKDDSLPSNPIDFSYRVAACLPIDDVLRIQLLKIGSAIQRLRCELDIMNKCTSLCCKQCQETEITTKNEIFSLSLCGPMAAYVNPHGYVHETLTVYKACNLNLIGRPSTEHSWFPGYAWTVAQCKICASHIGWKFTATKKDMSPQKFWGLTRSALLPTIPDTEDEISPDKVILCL
T3 sequence (Q16531 whole entry partner): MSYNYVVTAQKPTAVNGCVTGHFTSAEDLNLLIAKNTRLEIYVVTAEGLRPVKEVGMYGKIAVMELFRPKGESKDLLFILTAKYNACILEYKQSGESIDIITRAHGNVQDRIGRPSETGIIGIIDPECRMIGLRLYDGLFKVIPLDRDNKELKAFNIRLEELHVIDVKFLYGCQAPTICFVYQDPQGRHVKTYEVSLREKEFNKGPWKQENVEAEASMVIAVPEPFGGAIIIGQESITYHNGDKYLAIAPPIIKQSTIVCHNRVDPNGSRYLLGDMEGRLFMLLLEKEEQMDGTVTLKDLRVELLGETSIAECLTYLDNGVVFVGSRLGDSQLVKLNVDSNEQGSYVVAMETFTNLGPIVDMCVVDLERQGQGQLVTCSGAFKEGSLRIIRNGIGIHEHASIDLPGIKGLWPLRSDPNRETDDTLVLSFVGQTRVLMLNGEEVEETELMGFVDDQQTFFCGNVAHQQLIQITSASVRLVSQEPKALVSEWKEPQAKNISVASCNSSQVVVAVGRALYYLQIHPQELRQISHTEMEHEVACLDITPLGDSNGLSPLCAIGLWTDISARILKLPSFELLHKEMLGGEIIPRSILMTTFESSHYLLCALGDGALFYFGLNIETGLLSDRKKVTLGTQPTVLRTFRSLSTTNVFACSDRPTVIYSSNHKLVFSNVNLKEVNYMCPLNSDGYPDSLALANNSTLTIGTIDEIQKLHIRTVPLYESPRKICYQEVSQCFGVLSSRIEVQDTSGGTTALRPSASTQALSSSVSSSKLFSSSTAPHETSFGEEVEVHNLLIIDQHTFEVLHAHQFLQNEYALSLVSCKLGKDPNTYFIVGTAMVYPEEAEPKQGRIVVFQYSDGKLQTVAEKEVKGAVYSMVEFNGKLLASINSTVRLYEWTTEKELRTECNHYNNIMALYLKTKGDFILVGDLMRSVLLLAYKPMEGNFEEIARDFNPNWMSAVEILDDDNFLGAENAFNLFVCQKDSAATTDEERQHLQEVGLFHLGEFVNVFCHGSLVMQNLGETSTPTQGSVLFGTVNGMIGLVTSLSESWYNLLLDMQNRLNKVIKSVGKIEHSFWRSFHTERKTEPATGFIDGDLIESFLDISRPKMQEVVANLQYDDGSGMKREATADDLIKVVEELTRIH
Nature of the experiment: Western-blot assay, substrate protein degradation in hPBMCs: IKZF2.

In another experiment the target is T4, IKZF3 (Homo sapiens, UniProt Q96SW2+Q9UKT9).
T4 construct: effects of the compounds of the present disclosure on the expression of target proteins in cells; endogenous in cells; host or cells: human PBMCs (hPBMCs)
T4 sequence (Q9UKT9 whole entry): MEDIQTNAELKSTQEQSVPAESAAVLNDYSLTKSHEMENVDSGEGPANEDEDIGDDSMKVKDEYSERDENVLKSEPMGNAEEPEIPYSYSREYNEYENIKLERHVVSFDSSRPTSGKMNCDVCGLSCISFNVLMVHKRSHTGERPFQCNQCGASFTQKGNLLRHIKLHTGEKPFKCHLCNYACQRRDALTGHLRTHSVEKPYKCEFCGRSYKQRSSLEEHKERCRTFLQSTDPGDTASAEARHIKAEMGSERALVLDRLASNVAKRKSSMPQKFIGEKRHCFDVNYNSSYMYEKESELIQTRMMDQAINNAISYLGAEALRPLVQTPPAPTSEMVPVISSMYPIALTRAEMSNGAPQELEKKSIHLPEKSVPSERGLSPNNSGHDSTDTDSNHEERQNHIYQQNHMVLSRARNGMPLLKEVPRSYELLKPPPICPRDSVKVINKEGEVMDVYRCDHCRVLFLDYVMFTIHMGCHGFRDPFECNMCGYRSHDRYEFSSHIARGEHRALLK
T4 sequence (Q96SW2 whole entry): as the sequence (Q96SW2 whole entry) above
T4 sequence (Q16531 whole entry partner): as the sequence (Q16531 whole entry partner) above
Nature of the experiment: Western-blot assay, substrate protein degradation in hPBMCs: IKZF3.

A further experiment concerns the target T5, IKZF1 (Homo sapiens, UniProt Q13422+Q96SW2).
T5 construct: effects of the compounds of the present disclosure on the expression of target proteins in cells; endogenous in cells; host or cells: human PBMCs (hPBMCs)
Nature of the experiment: Western-blot assay, substrate protein degradation in hPBMCs: IKZF1.

The target in a further experiment is T6, CK1α (Homo sapiens, UniProt P48729+Q96SW2).
T6 construct: effects of the compounds of the present disclosure on the expression of target proteins in cells; endogenous in cells; host or cells: human PBMCs (hPBMCs)
T6 sequence (P48729 whole entry): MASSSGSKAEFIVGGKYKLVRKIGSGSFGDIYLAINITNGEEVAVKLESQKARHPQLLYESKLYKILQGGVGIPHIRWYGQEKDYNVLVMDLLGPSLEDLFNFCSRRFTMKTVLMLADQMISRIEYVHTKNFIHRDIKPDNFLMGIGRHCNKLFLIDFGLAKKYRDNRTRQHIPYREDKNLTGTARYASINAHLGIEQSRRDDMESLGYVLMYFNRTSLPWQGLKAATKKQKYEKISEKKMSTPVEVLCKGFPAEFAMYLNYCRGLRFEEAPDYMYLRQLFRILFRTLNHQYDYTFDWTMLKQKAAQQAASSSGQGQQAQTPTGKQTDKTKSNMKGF
T6 sequence (Q96SW2 whole entry): as the sequence (Q96SW2 whole entry) above
T6 sequence (Q16531 whole entry partner): as the sequence (Q16531 whole entry partner) above
Nature of the experiment: Western-blot assay, substrate protein degradation in hPBMCs: CK1α.

The structures appear in SMILES notation.

T1 sequence (P30291 whole entry): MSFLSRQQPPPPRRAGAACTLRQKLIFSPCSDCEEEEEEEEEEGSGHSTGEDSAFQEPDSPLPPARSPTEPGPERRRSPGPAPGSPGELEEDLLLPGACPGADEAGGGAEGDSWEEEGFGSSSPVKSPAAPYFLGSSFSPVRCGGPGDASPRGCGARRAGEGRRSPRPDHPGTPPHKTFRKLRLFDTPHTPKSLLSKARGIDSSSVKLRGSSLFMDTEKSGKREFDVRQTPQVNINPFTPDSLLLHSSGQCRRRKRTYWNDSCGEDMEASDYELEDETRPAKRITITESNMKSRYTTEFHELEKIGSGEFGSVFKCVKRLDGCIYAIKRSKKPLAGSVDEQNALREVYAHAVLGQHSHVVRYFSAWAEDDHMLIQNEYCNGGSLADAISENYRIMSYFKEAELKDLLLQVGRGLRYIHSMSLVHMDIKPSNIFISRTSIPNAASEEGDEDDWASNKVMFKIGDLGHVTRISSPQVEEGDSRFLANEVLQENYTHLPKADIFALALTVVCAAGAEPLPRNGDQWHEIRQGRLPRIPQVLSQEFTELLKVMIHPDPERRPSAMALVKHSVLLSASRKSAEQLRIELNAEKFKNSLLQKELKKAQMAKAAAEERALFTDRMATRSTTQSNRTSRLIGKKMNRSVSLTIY
T1 sequence (Q96SW2 whole entry): as the sequence (Q96SW2 whole entry) above
T1 sequence (Q16531 whole entry partner): as the sequence (Q16531 whole entry partner) above
T5 sequence (Q13422 whole entry): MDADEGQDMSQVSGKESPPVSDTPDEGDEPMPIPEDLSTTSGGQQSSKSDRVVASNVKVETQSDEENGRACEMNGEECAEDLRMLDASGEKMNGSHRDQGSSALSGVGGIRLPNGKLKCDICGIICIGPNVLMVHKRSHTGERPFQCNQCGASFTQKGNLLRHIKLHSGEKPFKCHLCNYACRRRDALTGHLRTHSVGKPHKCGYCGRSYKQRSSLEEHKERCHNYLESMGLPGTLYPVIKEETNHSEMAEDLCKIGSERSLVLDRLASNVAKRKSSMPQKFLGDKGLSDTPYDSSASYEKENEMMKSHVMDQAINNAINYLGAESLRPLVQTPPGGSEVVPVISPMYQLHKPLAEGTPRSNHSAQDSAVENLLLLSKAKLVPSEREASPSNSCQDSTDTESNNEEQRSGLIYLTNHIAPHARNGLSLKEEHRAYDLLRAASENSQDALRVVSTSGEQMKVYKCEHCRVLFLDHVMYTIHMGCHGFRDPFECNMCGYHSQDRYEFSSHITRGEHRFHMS
T5 sequence (Q96SW2 whole entry): as the sequence (Q96SW2 whole entry) above
T5 sequence (Q16531 whole entry partner): as the sequence (Q16531 whole entry partner) above

`O=C1CCN(N2C(=O)c3ccc(CN4CCC(c5c[nH]c6cc(F)ccc56)CC4)cc3C2=O)C(=O)N1` [GT-05259, 2-(2,4-dioxotetrahydropyrimidin-1(2H)-yl)-5-((4-(6-fluoro-1H-indol-3-yl)piperidin-1-yl)methyl)isoindoline-1,3-dione]: at WEE1, the “WEE1 substrate protein remaining %” value is listed as “B ("B" is defined as 80%< substrate protein remaining %≤ 100%)”. Besides, on GSPT1, the “GSPT1 substrate protein remaining %” value is reported as “A ("A" is defined as 0% ≤ substrate protein remaining % ≤ 80%)”. In addition, the “IKZF2 substrate protein remaining %” value on IKZF2 was “A ("A" is defined as 0% ≤ substrate protein remaining % ≤ 80%)”. The “IKZF3 substrate protein remaining %” value at IKZF3 is “B ("B" is defined as 80%< substrate protein remaining %≤ 100%)”. For the same compound, the “IKZF1 substrate protein remaining %” value at IKZF1 is on record as “A ("A" is defined as 0% ≤ substrate protein remaining % ≤ 80%)”. Further, the “CK1α substrate protein remaining %” value at CK1α is reported as “B ("B" is defined as 80%< substrate protein remaining %≤ 100%)”.

Regarding `O=C1CCN(N2C(=O)c3ccc(CN4CCC(N5CCc6cc(F)ccc65)CC4)cc3C2=O)C(=O)N1` [GT-05260, 2-(2,4-dioxotetrahydropyrimidin-1(2H)-yl)-5-((4-(5-fluoroindolin-1-yl)piperidin-1-yl)methyl)isoindoline-1,3-dione], the “WEE1 substrate protein remaining %” value on WEE1 is “A ("A" is defined as 0% ≤ substrate protein remaining % ≤ 80%)”. Besides, the “GSPT1 substrate protein remaining %” value on GSPT1 was “B ("B" is defined as 80%< substrate protein remaining %≤ 100%)”. Further, the “IKZF2 substrate protein remaining %” value at IKZF2 is “A ("A" is defined as 0% ≤ substrate protein remaining % ≤ 80%)”. Moreover, at IKZF3, the “IKZF3 substrate protein remaining %” value was “B ("B" is defined as 80%< substrate protein remaining %≤ 100%)”. For the same compound, the “IKZF1 substrate protein remaining %” value at IKZF1 was “A ("A" is defined as 0% ≤ substrate protein remaining % ≤ 80%)”. Besides, at CK1α, the “CK1α substrate protein remaining %” value was “B ("B" is defined as 80%< substrate protein remaining %≤ 100%)”.

Take `O=C1CCN(N2C(=O)c3ccc(CN4CC=C(c5ccnc6cc(F)ccc56)CC4)cc3C2=O)C(=O)N1` [GT-05261, 2-(2,4-dioxotetrahydropyrimidin-1(2H)-yl)-5-((4-(7-fluoroquinolin-4-yl)-3,6-dihydropyridin-1(2H)-yl)methyl)isoindoline-1,3-dione]: at WEE1, the “WEE1 substrate protein remaining %” value is recorded as “B ("B" is defined as 80%< substrate protein remaining %≤ 100%)”. Besides, the “GSPT1 substrate protein remaining %” value at GSPT1 is listed as “B ("B" is defined as 80%< substrate protein remaining %≤ 100%)”. For the same compound, the “IKZF2 substrate protein remaining %” value at IKZF2 was “A ("A" is defined as 0% ≤ substrate protein remaining % ≤ 80%)”. Besides, the “IKZF3 substrate protein remaining %” value at IKZF3 is reported as “B ("B" is defined as 80%< substrate protein remaining %≤ 100%)”. Besides, the “IKZF1 substrate protein remaining %” value at IKZF1 was “B ("B" is defined as 80%< substrate protein remaining %≤ 100%)”. On CK1α, the “CK1α substrate protein remaining %” value is “B ("B" is defined as 80%< substrate protein remaining %≤ 100%)”.

`O=C1CCN(N2C(=O)c3ccc(CN4CCN(C(c5ccccc5)c5ccccc5)CC4)cc3C2=O)C(=O)N1` [GT-05267, 5-((4-benzhydrylpiperazin-1-yl)methyl)-2-(2,4-dioxotetrahydropyrimidin-1(2H)-yl)isoindoline-1,3-dione]: on WEE1, the “WEE1 substrate protein remaining %” value is “B ("B" is defined as 80%< substrate protein remaining %≤ 100%)”. In addition, the “GSPT1 substrate protein remaining %” value on GSPT1 is recorded as “A ("A" is defined as 0% ≤ substrate protein remaining % ≤ 80%)”. For the same compound, the “IKZF2 substrate protein remaining %” value at IKZF2 is recorded as “B ("B" is defined as 80%< substrate protein remaining %≤ 100%)”. Further, on IKZF3, the “IKZF3 substrate protein remaining %” value is “A ("A" is defined as 0% ≤ substrate protein remaining % ≤ 80%)”. For the same compound, the “IKZF1 substrate protein remaining %” value at IKZF1 is recorded as “B ("B" is defined as 80%< substrate protein remaining %≤ 100%)”. On CK1α, the “CK1α substrate protein remaining %” value is on record as “A ("A" is defined as 0% ≤ substrate protein remaining % ≤ 80%)”.

Take `O=C1CCN(N2C(=O)c3ccc(CN4CCN(C(c5ccc(F)cc5)c5ccc(F)cc5)CC4)cc3C2=O)C(=O)N1` [GT-05268, 5-((4-(bis(4-fluorophenyl)methyl)piperazin-1-yl)methyl)-2-(2,4-dioxotetrahydropyrimidin-1(2H)-yl)isoindoline-1,3-dione]: the “WEE1 substrate protein remaining %” value on WEE1 is on record as “B ("B" is defined as 80%< substrate protein remaining %≤ 100%)”. For the same compound, the “GSPT1 substrate protein remaining %” value on GSPT1 is reported as “A ("A" is defined as 0% ≤ substrate protein remaining % ≤ 80%)”. In addition, the “IKZF2 substrate protein remaining %” value on IKZF2 is reported as “B ("B" is defined as 80%< substrate protein remaining %≤ 100%)”. Besides, the “IKZF3 substrate protein remaining %” value at IKZF3 is reported as “A ("A" is defined as 0% ≤ substrate protein remaining % ≤ 80%)”. In addition, the “IKZF1 substrate protein remaining %” value at IKZF1 is “B ("B" is defined as 80%< substrate protein remaining %≤ 100%)”. For the same compound, the “CK1α substrate protein remaining %” value on CK1α is “A ("A" is defined as 0% ≤ substrate protein remaining % ≤ 80%)”.

In the case of `O=C1CCN(N2C(=O)c3ccc(CN4CCN(C(c5ccc(Cl)cc5)c5ccc(Cl)cc5)CC4)cc3C2=O)C(=O)N1` [GT-05269, 5-((4-(bis(4-chlorophenyl)methyl)piperazin-1-yl)methyl)-2-(2,4-dioxotetrahydropyrimidin-1(2H)-yl)isoindoline-1,3-dione], on WEE1, the “WEE1 substrate protein remaining %” value is “B ("B" is defined as 80%< substrate protein remaining %≤ 100%)”. Also, the “GSPT1 substrate protein remaining %” value at GSPT1 is listed as “A ("A" is defined as 0% ≤ substrate protein remaining % ≤ 80%)”. For the same compound, the “IKZF2 substrate protein remaining %” value on IKZF2 is on record as “B ("B" is defined as 80%< substrate protein remaining %≤ 100%)”. Further, the “IKZF3 substrate protein remaining %” value at IKZF3 is given as “B ("B" is defined as 80%< substrate protein remaining %≤ 100%)”. For the same compound, on IKZF1, the “IKZF1 substrate protein remaining %” value was “B ("B" is defined as 80%< substrate protein remaining %≤ 100%)”. In addition, at CK1α, the “CK1α substrate protein remaining %” value was “A ("A" is defined as 0% ≤ substrate protein remaining % ≤ 80%)”.

On to `Cc1nc(C2CCN(Cc3ccc4c(c3)C(=O)N(N3CCC(=O)NC3=O)C4=O)CC2)c2ccsc2n1` [GT-05272, 2-(2,4-dioxotetrahydropyrimidin-1(2H)-yl)-5-((4-(2-methylthieno[2,3-d]pyrimidin-4-yl)piperidin-1-yl)methyl)isoindoline-1,3-dione], for which, at WEE1, the “WEE1 substrate protein remaining %” value is listed as “B ("B" is defined as 80%< substrate protein remaining %≤ 100%)”. Further, the “GSPT1 substrate protein remaining %” value on GSPT1 was “B ("B" is defined as 80%< substrate protein remaining %≤ 100%)”. Besides, the “IKZF2 substrate protein remaining %” value on IKZF2 was “A ("A" is defined as 0% ≤ substrate protein remaining % ≤ 80%)”. The “IKZF3 substrate protein remaining %” value on IKZF3 was “B ("B" is defined as 80%< substrate protein remaining %≤ 100%)”. For the same compound, the “IKZF1 substrate protein remaining %” value at IKZF1 is “B ("B" is defined as 80%< substrate protein remaining %≤ 100%)”. The “CK1α substrate protein remaining %” value at CK1α is given as “B ("B" is defined as 80%< substrate protein remaining %≤ 100%)”.

On to `Cc1sc2ncnc(C3=CCN(Cc4ccc5c(c4)C(=O)N(N4CCC(=O)NC4=O)C5=O)CC3)c2c1C` [GT-05273, 5-((4-(5,6-dimethylthieno[2,3-d]pyrimidin-4-yl)-3,6-dihydropyridin-1(2H)-yl)methyl)-2-(2,4-dioxotetrahydropyrimidin-1(2H)-yl)isoindoline-1,3-dione], for which, at WEE1, the “WEE1 substrate protein remaining %” value is recorded as “B ("B" is defined as 80%< substrate protein remaining %≤ 100%)”. The “GSPT1 substrate protein remaining %” value on GSPT1 was “B ("B" is defined as 80%< substrate protein remaining %≤ 100%)”. Further, the “IKZF2 substrate protein remaining %” value on IKZF2 is “A ("A" is defined as 0% ≤ substrate protein remaining % ≤ 80%)”. The “IKZF3 substrate protein remaining %” value on IKZF3 is on record as “B ("B" is defined as 80%< substrate protein remaining %≤ 100%)”. Further, the “IKZF1 substrate protein remaining %” value at IKZF1 is “B ("B" is defined as 80%< substrate protein remaining %≤ 100%)”. The “CK1α substrate protein remaining %” value at CK1α was “B ("B" is defined as 80%< substrate protein remaining %≤ 100%)”.

(Values after EP4722207A1, “OXOISOINDOLINYL-SUBSTITUTED TETRAHYDROPYRIMIDINEDIONE DERIVATIVE AND USE THEREOF” (Gluetacs Therapeutics (Shanghai) Co., Ltd., priority 2023, dated 2024).)
